# What was measured:
# [1] = system: senescent A549 cells; test: Viability of senescent A549 cells (CellTiter-Glo), Example 18, Table 15; conditions: Homo sapiens, A549, read-out: Survival (%)
# Description: Senescence-induced cancer cells treated with doxorubicin were treated with the test compound at designated concentrations, and cell viability was measured using the CellTiter-Glo Luminescent Cell Viability Assay (Promega).
# [2] = system: senescent cells; test: Viability of senescent cells (CellTiter-Glo), Example 17, Table 13; conditions: Homo sapiens, read-out: Survival (%)
# Description: Cells induced to undergo senescence by doxorubicin treatment were treated with test compound at designated concentrations and measured using the CellTiter-Glo Luminescent Cell Viability Assay (Promega).
# [3] = system: bleomycin-induced pulmonary fibrosis mice; test: Bleomycin-induced pulmonary fibrosis mice, Example 31, Table 56; format: in vivo, mouse; conditions: untreated = 100%
# Description: (§1) The control group was administered only the solution in the same volume. After the end of drug administration, the method described in each example below was performed. Liver, kidney, skin, knee joint, heart, and femur tissues were collected from mice in which natural aging was induced in the same manner as in Examples 7-2 and 7-6 of WO2023-085787 A1. Lung tissues were collected from mice in which pulmonary fibrosis was induced using the same method as in Example 24-1. Liver tissues were collected from mice in which hepatic fibrosis was induced using the same method as in Example 26, and total RNA was extracted. qRT-PCR was performed and analyzed using the synthesized cDNA. […] The mRNA amounts of p16, MMP3, and IL6 after natural aging was induced were calculated as 100% and compared with the mRNA amounts of p16, MMP3, and IL6 after treatment with the test compound. In addition, an open field test for the analysis of aging-related frailty, agtr1a mRNA analysis for kidney damage and disease evaluation, col1a1 and SDF1 mRNA analysis for skin aging evaluation such as wrinkles/loss of elasticity/hyperpigmentation, col2a1 mRNA analysis for evaluating joint aging such as osteoarthritis, sur2a mRNA analysis for evaluating cardiac aging such as decreased cardiac load resistance, ctsk mRNA analysis for evaluating bone diseases due to aging such as osteoporosis, muscle tissue weight for analyzing sarcopenia, fat tissue weight for analyzing lipoatrophy, and cataract incidence analysis were performed in mice. For cataract incidence analysis, the drug was administered twice a week under the conditions specified above, and biweekly examinations were conducted until death.
# The table below quantitatively presents the evaluation results for each item in mice with bleomycin-induced pulmonary fibrosis, untreated and treated with the test compound.
# [4] = system: carbon tetrachloride-induced liver fibrosis mice; test: Carbon tetrachloride-induced liver fibrosis mice, Example 31, Table 57; format: in vivo, mouse; conditions: CCl4-induced liver fibrosis mice, untreated = 100%
# Description: as §1
# [5] = system: naturally aged mice; test: Anti-aging evaluation in naturally aged mice, Example 31, Table 55; format: in vivo, mouse; conditions: for Femur Ctsk mRNA / Kidney Agtr1a mRNA / Liver IL6 mRNA / Liver MMP3 mRNA / Liver p16 mRNA / Open Field Test Time in Center: untreated = 100%; for Heart Sur2a mRNA / Joint Col2a1 mRNA / Skin Col1a1 mRNA / Skin SDF1 mRNA: untreated = 1.0; for Muscle Mass: untreated 0.64 g; for Fat Mass: untreated 0.82 g; for Cataract incidence: untreated 83%;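 on all read-outs here: Vehicle-dosed control mice received solution alone at matching volume, values compare test-compound-treated aged mice against that control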
# Description: After the end of drug administration, the method described in each example below was performed. […] The mRNA amounts of p16, MMP3, and IL6 after natural aging was induced were calculated as 100% and compared with the mRNA amounts of p16, MMP3, and IL6 after treatment with the test compound. In addition, an open field test for the analysis of aging-related frailty, agtr1a mRNA analysis for kidney damage and disease evaluation, col1a1 and SDF1 mRNA analysis for skin aging evaluation such as wrinkles/loss of elasticity/hyperpigmentation, col2a1 mRNA analysis for evaluating joint aging such as osteoarthritis, sur2a mRNA analysis for evaluating cardiac aging such as decreased cardiac load resistance, ctsk mRNA analysis for evaluating bone diseases due to aging such as osteoporosis, muscle tissue weight for analyzing sarcopenia, fat tissue weight for analyzing lipoatrophy, and cataract incidence analysis were performed in mice. For cataract incidence analysis, the drug was administered twice a week under the conditions specified above, and biweekly examinations were conducted until death.
SMILES,viability at 1.1 µM [1] [%],viability at 10 µM [1] [%],viability at 30 µM [1] [%],viability at 1.1 µM [2] [%],viability at 10 µM [2] [%],viability at 30 µM [2] [%],also measured
CC1(C)[C@H]2COc3ccc4ccccc4c3[C@H]2N=C2SC(c3ccccc3)=C(c3ccccc3)N21 [LX-5201],102,61.5,3.8,102,88.3,37.7,Lung p16 mRNA [3]: 75 (±4.2) %; Col1a1 mRNA [3]: 74 (±6.3) %; Liver p16 mRNA [4]: 64 (±8.4) %; Col1a1 mRNA [4]: 59 (±8.7) %; Femur Ctsk mRNA [5]: 53%; Heart Sur2a mRNA [5]: 1.5 fold; Joint Col2a1 mRNA [5]: 1.9 fold; Kidney Agtr1a mRNA [5]: 58%; Liver IL6 mRNA [5]: 43%; Liver MMP3 mRNA [5]: 67%; Liver p16 mRNA [5]: 58%; Open Field Test Time in Center [5]: 168%; Skin Col1a1 mRNA [5]: 2.1 Fold; Skin SDF1 mRNA [5]: 2.3 fold; Muscle Mass [5]: 0.77 g; Fat Mass [5]: 0.97 g; Cataract incidence [5]: 49%
"CN[C@H](CC(C)C)C(=O)N[C@H]1C(=O)N[C@@H](CC(N)=O)C(=O)N[C@H]2C(=O)N[C@H]3C(=O)N[C@H](C(=O)N[C@H](C(=O)O)c4cc(O)cc(O)c4-c4cc3ccc4O)[C@H](O)c3ccc(c(Cl)c3)Oc3cc2cc(c3O[C@@H]2O[C@H](CO)[C@@H](O)[C@H](O)[C@H]2O[C@H]2C[C@](C)(N)[C@H](O)[C@H](C)O2)Oc2ccc(cc2Cl)[C@H]1O [LX-5424, Vancomycin]",98.9,74.3,21.8,106,62.5,10.5,Lung p16 mRNA [3]: 70 (±3.5) %; Col1a1 mRNA [3]: 73 (±2.7) %; Liver p16 mRNA [4]: 79 (±5.6) %; Col1a1 mRNA [4]: 51 (±4.7) %; Femur Ctsk mRNA [5]: 70%; Heart Sur2a mRNA [5]: 2.3 fold; Joint Col2a1 mRNA [5]: 1.5 fold; Kidney Agtr1a mRNA [5]: 68%; Liver IL6 mRNA [5]: 45%; Liver MMP3 mRNA [5]: 59%; Liver p16 mRNA [5]: 72%; Open Field Test Time in Center [5]: 191%; Skin Col1a1 mRNA [5]: 1.6 Fold; Skin SDF1 mRNA [5]: 1.7 fold; Muscle Mass [5]: 0.67 g; Fat Mass [5]: 0.84 g; Cataract incidence [5]: 76%
"C#CCC(Cc1cnc2nc(N)nc(N)c2n1)c1ccc(C(=O)N[C@@H](CCC(=O)O)C(=O)O)cc1 (some centres unmarked) [LX-7405, Pralatrexate]",94.7,78.4,12.1,100,79,40.6,
"CS(=O)(=O)c1ccc(Oc2cc(F)cc(C#N)c2)c2c1[C@H](O)[C@H](F)[C@@H]2F [LX-7451, Belzutifan]",100,68.7,10.7,105,39.2,,
"N[C@@H](CCC(=O)N[C@@H](CS(=O)(=O)CCOP(=O)(N(CCCl)CCCl)N(CCCl)CCCl)C(=O)N[C@@H](C(=O)O)c1ccccc1)C(=O)O [LX-7463, Canfosfamide]",96.5,43.3,0.1,88.8,32.1,,
"NS(=O)(=O)NCCNc1nonc1C(=NO)Nc1ccc(F)c(Br)c1 [LX-8804, Epacadostat]",71.5,2.1,,54.5,,,
"NCCCC(O)(P(=O)(O)O)P(=O)(O)O [LX-9105, Alendronate]",105,96.2,57.1,102,96,89.9,viability at 90 µM [1]: 6.9%; viability at 90 µM [2]: 4.2%
"Cc1ncc([N+](=O)[O-])n1CCO [LX-9107, Metronidazole]",95.6,77.8,5,106,87.3,26.2,
"COc1cc(Cc2cnc(N)nc2N)cc(OC)c1OC [LX-9114, Trimethoprim]",95.2,74.4,20.7,102,88.6,16.1,
"CC(C)C[C@H](CN)CC(=O)O [LX-9131, Pregabalin]",91.7,83.3,57.9,81.9,47.7,13.2,viability at 90 µM [1]: 12.4%
"CCOC(=O)C1=CCCC[C@H]1S(=O)(=O)Nc1ccc(F)cc1Cl [LX-9137, Resatorvid]",91.8,37.2,8.8,90.5,43.8,14.6,
"CCOc1cc(CC(=O)N[C@@H](CC(C)C)c2ccccc2N2CCCCC2)ccc1C(=O)O [LX-9302, Repaglinide]",94.1,82.3,68.5,99.7,73.5,34.3,viability at 90 µM [1]: 11.8%
"C=CC[C@@H]1/C=C(\C)C[C@H](C)C[C@H](OC)[C@H]2O[C@@](O)(C(=O)C(=O)N3CCCC[C@H]3C(=O)O[C@H](/C(C)=C/[C@@H]3CC[C@@H](O)[C@H](OC)C3)[C@H](C)[C@@H](O)CC1=O)[C@H](C)C[C@@H]2OC [LX-9314, Tacrolimus]",92.9,57.1,14.7,84.7,69.2,35.3,
"O=C1[C@H](CC[C@H](O)c2ccc(F)cc2)[C@@H](c2ccc(O)cc2)N1c1ccc(F)cc1 [LX-9321, Ezetimibe]",108,91.4,65.8,98.3,86.4,79.6,viability at 90 µM [1]: 4.1%; viability at 90 µM [2]: 19.4%
"COc1ccc(Cl)cc1C(=O)NCCc1ccc(S(=O)(=O)NC(=O)NC2CCCCC2)cc1 [LX-9335, glyburide]",90.2,60.8,13.8,85.2,56.3,12.2,
"CN(C)C[C@@H]1CCn2cc(c3ccccc32)C2=C(C(=O)NC2=O)c2cn(c3ccccc23)CCO1 [LX-9339, Ruboxistaurin]",49.2,,,55.6,,,
"CC(=O)NCCOC(=O)[C@H](Oc1cccc(C(F)(F)F)c1)c1ccc(Cl)cc1 [LX-9409, Arhalofenate]",72.7,51.9,8.7,80.5,65.7,15.3,
"CCc1ccc(CCOc2ccc(CC3SC(=O)NC3=O)cc2)nc1 (centres unmarked) [LX-9422, Pioglitazone]",104,62.8,15.8,94.7,56.2,6.7,
"CN1CCCC1 [LX-9425, N-methyl pyrrolidine]",97.5,100,68.2,102,97.5,66.8,
"COc1ccccc1OCC(O)CN1CCN(CC(=O)Nc2c(C)cccc2C)CC1 (centres unmarked) [LX-9565, Ranolazine]",97,67.3,34.1,78.9,52.3,6.1,viability at 90 µM [1]: 3.6%
"CC(C)(CCCCCC(O)CCCCCC(C)(C)C(=O)O)C(=O)O [LX-9602, Bempedoic acid]",101,96.4,75.4,113,102,92.2,viability at 90 µM [1]: 3.8%; viability at 90 µM [2]: 11.1%
"CCCCC[C@H](O)CC[C@@H]1[C@H]2Cc3cccc(OCC(=O)O)c3C[C@H]2C[C@H]1O [LX-9713, Treprostinil]",28.4,,,1.8,,,
"COc1c(C)c2c(c(O)c1C/C=C(\C)CCC(=O)O)C(=O)OC2 [LX-9725, Mycophenolic acid]",62.4,,,49.3,,,
"CC[C@H]1[C@@H](O)[C@@H]2[C@H](CC[C@]3(C)[C@@H]([C@H](C)CCC(=O)O)CC[C@@H]23)[C@@]2(C)CC[C@@H](O)C[C@@H]12 [LX-9732, Obeticholic Acid]",97.5,51.3,7.9,95.7,46.4,3.8,
